In patent publication US20200246380A1, “Pharmaceutical Composition for Preventing or Treating Autoimmune Disease, and Method for Producing Same” (priority 2017, published 2020):

Key:
Assay type in all cases: cell-based, C57BL/6 mice
[1] = test system: plasmacytoid dendritic cells; test: IL-10 secretion from pDC induced with various toll-like receptor agonists, ELISA (Example 3); details: pDC stimulated with ODN1826 (1 μg/ml), 24 hours; vs non-treatment
Procedure: Ligands listed in Table 2 were used as the toll-like receptor agonist. […] The separated cells (5×10^5 cells/ml) were inoculated into a 48 well plate. ODN1826 (1 μg/ml) was applied thereto and the cells were cultured for 24 hours. Then, supernatant was separated. The secretion pattern of the immunosuppressive cytokine IL-10 was then checked by ELISA (enzyme linked immunosorbent assay). In this connection, in order to check the effect from the treatment using the toll-like receptor agonist, the case in which the toll-like receptor agonist was not applied thereto during the differentiation of the immature dendritic cells is shown as Comparative Example (non).

[2] = test system: plasmacytoid dendritic cells; test: Cytokine secretion from pDC according to treatment time of toll-like receptor agonist, ELISA (Example 4); details: agonist applied at start of differentiation (0 day treatment) or 3 days thereafter; ODN1826 24 hours; vs no-treatment
Source text: Differentiation into the plasmacytoid dendritic cells was induced by the same method as in Example 1 in order to check the immune tolerance inducing effect of the toll-like receptor agonist according to the treatment time point. Further, the toll-like receptor agonists were applied at the start time of the differentiation (0-day treatment) and were applied on 3 days after the start of differentiation (3 day treatment). After the total 8 days culturing, the plasmacytoid dendritic cells were isolated therefrom at a purity equal to or greater than 85% using a plasmacytoid dendritic cell separation kit (Miltenyi Biotec, Auburn, Calif.) and a magnetic cell sorting system (Vario MACS: Miltenyi Biotec, Auburn, Calif.). The separated cells (5×10^5 cells/ml) were inoculated into a 48 well plate. ODN1826 (1 μg/ml) was applied thereto and the cells were cultured for 24 hours. Then, supernatant was separated. The secretion pattern of the cytokine was then checked by ELISA (enzyme linked immunosorbent assay). In this connection, in order to check the effect from the treatment using the toll-like receptor agonist, the case in which the toll-like receptor agonist was not applied thereto during the differentiation of the immature dendritic cells is shown as Comparative Example (no-treatment, non).

[3] = test system: immature dendritic cells; test: Differentiation of immature dendritic cells into plasmacytoid dendritic cells with toll-like receptor agonist (Example 1); details: Pam3 100 to 500 ng/ml on third day of Flt3L differentiation; treatment vs non-treatment
Procedure: Specifically, thigh bone marrow samples were collected from C57BL/6 mice using bone marrow collecting syringes. The collected bone marrow was washed with phosphate buffered saline (PBS), and red blood cells were removed therefrom using ammonium chloride. Separated cells (3×10^6 cells/well) were inoculated in a 6-well plate. Then, 1 ml of RPMI 1640 containing 10% FBS (fetal bovine serum), 2 mM L-glutamine, 100 U/ml penicillin/streptomycin, 50 μM mercaptoethanol, 0.1 mM non-essential amino acid, 1 mM sodium pyruvate and 250 ng/ml FLT3L was added thereto to initiate culture and differentiation of the cells. On the third day after the start of differentiation, Pam3 was applied thereto at a concentration of 100 to 500 ng/ml. On 5 days from the start of differentiation, 1 ml of the RPMI 1640 was further supplemented thereto. The cells were cultured for 8 days. […] Further, in the case (TLRs-pDC) when the immature dendritic cells were treated with the toll-like receptor agonist, the ratio of the number of plasmacytoid dendritic cells obtained after the eighth day to the number of the initial immature dendritic cells was measured. […]

Molecule | expression level of IL-10 from pDC differentiated via treatment with the agonist [1] | expression level of IFN-α [2] | expression level of IFN-β [2] | expression level of IL-10 [2] | expression level of IL-12p70 [2] | expression level of TNF-α [2] | differentiation efficiency into plasmacytoid dendritic cells [3]
LPS [TLR4 agonist] | significantly increased |  |  |  |  |  | 
Pam3 [TLR2 agonist] | significantly increased | inhibited | inhibited | significantly increased | inhibited | inhibited | no difference
CC(C)Cn1cnc2c(N)nc3ccccc3c21 [TLR7 agonist, Imiquimod] | significantly increased |  |  |  |  |  | 
